From US4889926A, “Method for the synthesis of (2"R)-4'-O-tetra-hydropyranyladriamycim using 14-chloro-daunomycin as an intermediate” (priority 1987, dated 1989)
≈ marks a conversion by molar mass, not a printed value. Read-outs that look alike come from different tables or passages of the source.

Columns and labels:
tumor = conditions: Japanese patent publication No. 47194/81 and U.S. Pat. No. 4,303,785; cited from earlier work
[1] = Storage stability in solid state; type: physicochemical; conditions: -10° C.
Text: In the above-mentioned known processes for the preparation of (2"R)-4'-O-THPADM of formula (A) in which daunomycin (DM) of formula (II) is used as the starting compound, and which are effected via the 14-bromodaunomycin of formula (V) as the intermediate product (namely the processes of the aforesaid Japanese patent application first publication "Kokai" Nos. 104,299/80 and 156,300/81), there are formed great amounts of the undesired by-products in the tetrahydropyranylation step so that the intended final compound can be obtained only in a low yield with these prior art processes. The intermediate compound, 14-bromodaunomycin is so unstable that even when it has been stored in its solid state at -10° C. for about 1 week, 14-bromodaunomycin can remain only in such an amount which is as little as about two-thirds of its initial amount before its storage, due to that the amino sugar moiety bonded to the 7-position can be cleaved to bring about the degradation of 14-bromodaunomycin.

[2] = system: murine melanoma B16 cells; assay: Growth inhibition by MTT assay, B16; type: cell-based; conditions: Mus musculus, read-out: IC50 value (50% growth inhibitory concentration), B16
Protocol: (§1) Antitumor activities of 14-chlorodaunomycin against various experimental tumors, including murine leukemia P-388 cells, murine leukemia P-388 cells (resistant to adriamycin), murine melanoma B16 cells, human lung cancer PC14 cells and murine leukemia L-1210 cells, were tested and evaluated in vitro by the following procedure:
(§2) The tumor cells were cultivated in RPMI 1640 medium supplemented with 10% fetal calf serum, 10μM 2-hydroxyethyldisulfide and kanamycin at 50 μg/ml (the growth medium), under air containing 5% CO2 at 37° C.
(§3) The tumor cells were incubated at initial densities of 1.5×10^4 cells/ml with murine melanoma B16; 2×10^4 cells/ml with murine leukemia P388, P388/ADR and L-1210; and 2.5×10^4 cells/ml with human lung cancer PC14 cells in the growth medium further containing graded concentrations of each test compound, for 72 hours. The IC50 value, namely the 50% growth inhibitory concentration of the tested compound was evaluated by MTT assay method (see Mosmann, T; "J. Immunol. Methods", 65, 55-63 (1983).

[3] = system: murine leukemia P-388 cells; assay: Growth inhibition by MTT assay, P-388; type: cell-based; conditions: Mus musculus, read-out: IC50 value (50% growth inhibitory concentration), P-388
Protocol: as §1, §2, §3

[4] = system: human lung cancer PC14 cells; assay: Growth inhibition by MTT assay, PC14; type: cell-based; conditions: read-out: IC50 value (50% growth inhibitory concentration), PC14
Protocol: as §1, §2, §3

[5] = system: various kinds of experimental tumors; assay: Antitumor activity against various experimental tumors (in words); type: cell-based
Protocol: as §1, with “procedure: […]” for “procedure:”

[6] = system: murine leukemia P-388 cells (resistant to adriamycin); assay: Growth inhibition by MTT assay, P-388 resistant to adriamycin; type: cell-based; conditions: Mus musculus, read-out: IC50 value (50% growth inhibitory concentration), P-388 resistant to adriamycin
Protocol: as §1, §2, §3

[7] = system: murine leukemia L-1210 cells; assay: Growth inhibition by MTT assay, L-1210; type: cell-based; conditions: Mus musculus, read-out: IC50 value (50% growth inhibitory concentration), L-1210
Protocol: as §1, §2, §3

[8] = Stability in solution in an organic solvent; type: physicochemical
[9] = B16, 72 hours, MTT assay, 1.5×10^4 cells/ml
[10] = P388, P-388, 72 hours, MTT assay, 2×10^4 cells/ml
[11] = PC-14, PC14, 72 hours, MTT assay, 2.5×10^4 cells/ml
[12] = P388/ADR, 72 hours, MTT assay, 2×10^4 cells/ml
[13] = L1210, L-1210, 72 hours, MTT assay, 2×10^4 cells/ml

SMILES: COc1cccc2c1C(=O)c1c(O)c3c(c(O)c1C2=O)C[C@@](O)(C(=O)CO)C[C@@H]3O[C@H]1C[C@H](N)[C@H](O[C@@H]2CCCCO2)[C@H](C)O1 [4'-O-tetrahydropyranyladriamycin]
- antitumor activity (tumor): has antitumor activity

SMILES: COc1cccc2c1C(=O)c1c(O)c3c(c(O)c1C2=O)C[C@@](O)(C(=O)CBr)C[C@@H]3O[C@H]1C[C@H](N)[C@H](O)[C@H](C)O1 [14-bromodaunomycin]
- amount remaining of its initial amount after storage ([1]; 14-bromodaunomycin (comparator intermediate), solid state, about 1 week): about two-thirds

SMILES: COc1cccc2c1C(=O)c1c(O)c3c(c(O)c1C2=O)C[C@@](O)(C(=O)CCl)C[C@@H]3O[C@H]1C[C@H](N)[C@H](O)[C@H](C)O1 [14-chlorodaunomycin]
- IC50 ([2]; B16, 72 h): 0.093 mg/L (≈ 0.165 µM)
- IC50 ([3]; P388, 72 h): 0.0963 mg/L (≈ 0.171 µM)
- IC50 ([4]; PC-14, 72 h): 0.96 mg/L (≈ 1.71 µM)
- antitumor activity [5]: remarkable antitumor activity
- IC50 ([6]; P388, 72 h): 0.552 mg/L (≈ 0.982 µM)
- IC50 ([7]; L1210, 72 h): 0.268 mg/L (≈ 0.477 µM)
- decomposition rate in solution compared with 14-bromodaunomycin ([8]; organic solvent containing some water and an acidic compound, same conditions): considerably smaller than that of 14-bromodaunomycin
- stability in solution in an organic solvent ([8]; solution in an organic solvent): somewhat stable
- decomposition on storage ([1]; solid form, 1 week or so): no substantial decomposition

SMILES: COc1cccc2c1C(=O)c1c(O)c3c(c(O)c1C2=O)C[C@@](O)(C(=O)CO)C[C@@H]3O[C@H]1C[C@H](N)[C@H](O)[C@H](C)O1 [Adriamycin, adriamycin]
- IC50 [2, 9]: 0.101 mg/L (≈ 0.186 µM)
- IC50 [3, 10]: 0.033 mg/L (≈ 0.0607 µM)
- IC50 [4, 11]: 0.765 mg/L (≈ 1.41 µM)
- IC50 [6, 12]: 2.06 mg/L (≈ 3.79 µM)
- IC50 [7, 13]: 0.154 mg/L (≈ 0.283 µM)

SMILES: COc1cccc2c1C(=O)c1c(O)c3c(c(O)c1C2=O)C[C@@](O)(C(C)=O)C[C@@H]3O[C@H]1C[C@H](N)[C@H](O)[C@H](C)O1 [Daunomycin, daunomycin]
- IC50 [2, 9]: 0.0449 mg/L (≈ 0.0851 µM)
- IC50 [3, 10]: 0.0163 mg/L (≈ 0.0309 µM)
- IC50 [4, 11]: 0.237 mg/L (≈ 0.449 µM)
- IC50 [6, 12]: 0.668 mg/L (≈ 1.27 µM)
- IC50 [7, 13]: 0.0655 mg/L (≈ 0.124 µM)
